From a melting point compilation (Tetko et al.; mined from patent text by program, amines drawn as free bases though some values may be those of a salt)

Row | melting point | SMILES
1 | 117 to 118 °C | CC(=O)SC1C2=C(CCCC2)C(=O)N1c1ccc(Br)cc1F (stereo unspecified)
2 | 171 to 173 °C | CCC(CNC(=O)OC(C)(C)C)n1cnc2c(N)nc3ccccc3c21 (stereo unspecified)
3 | 233 to 235 °C | CCOCc1nc2c(N)nc3cc(-c4cccnc4)ccc3c2n1CCNS(C)(=O)=O
4 | 207 to 209 °C | CC1Cc2c(n(-c3ccccc3)c3ncccc3c2=O)O1 (stereo unspecified)
5 | 134 to 135 °C | COc1cc(Br)nc(C(=O)O)c1OCc1ccccc1
6 | 113 to 114 °C | COC(=O)Cc1ccccc1N(Cc1ccc(C)cc1)c1c(Cl)cccc1Cl
7 | 138 to 140 °C | COC(=O)C1(C)CC(C(=O)Nc2ccc(Cl)cc2)=NN1c1ccc(Cl)cc1 (stereo unspecified)
8 | 169 to 172 °C | COc1cc2c3c(c1OC)CN(C)CC3Cc1cc3c(cc1-2)OCO3 (stereo unspecified)
9 | 107 to 108 °C | COc1cc(C#N)ccc1OCCCN1CCC(c2noc3cc(F)ccc23)CC1
10 | 123 to 125 °C | Cc1oc(-c2ccccc2)nc1COc1ccc(COc2ccccc2CC(=O)O)cn1
11 | 110 to 121 °C | NS(=O)(=O)c1ccc(-c2c(-c3ccccc3)noc2COCCO)cc1
12 | 204 to 206 °C | COC(=O)c1ccc(-c2n[nH]c3c2CCc2nc(C(C)C)c(C(C)C)nc2-3)cc1
13 | 149 to 151 °C | COc1ccc2cc(C(=O)C(C)OS(C)(=O)=O)ccc2c1 (stereo unspecified)
14 | 88 to 91 °C | COc1ccc(C2(O)CCCCC2=O)c(OC)c1OC (stereo unspecified)
15 | 189 to 192 °C | Cc1cccc2c1N(C(=O)OC(C)(C)C)Cc1c(-c3noc(C4CC4)n3)ncn1-2
16 | 182 to 183 °C | CCCc1nc(CO)n2[nH]c(=O)nc2c1Cc1ccc(-c2ccccc2-c2nnn[nH]2)cc1
17 | 158 to 159 °C | Cc1noc2cc(F)c(-n3c(=O)cc(C(F)(F)F)n(C)c3=O)cc12
18 | 215 to 216 °C | O=C(Nc1cccnn1)N1CCN(c2nc(-c3cccc(F)c3F)cs2)CC1
19 | 213 to 214 °C | Nc1nc2ccccc2c2c1ncn2CCCCNC(=O)c1ccncc1
20 | 237 to 239 °C | CC(C)(C)Nc1c(NCc2cccc(C(F)(F)F)c2)c(=O)c1=O
21 | 168 °C | Cc1cccc(CC(=O)c2ccnc(-c3ccc(OCC(N)=O)cc3)c2)n1

Row | melting point | SMILES
22 | 49 to 52 °C | CCOC(=O)c1c(C(F)(F)F)nc(C(F)F)c(C(=O)OC)c1C1CC1
23 | 204 to 207 °C | COc1c(Cl)ccc(-c2cc(N)c(Cl)c(C(=O)N3CCCO3)n2)c1F
24 | 291 to 293 °C | COc1cc(O)c2c(=O)[nH]c(-c3cc(C)c(O)c(C)c3)nc2c1
25 | 251 °C | CN1CCC[C@H]1COc1ccc(/C=C/C(=O)O)cc1
26 | 163 to 164 °C | CCOC(=O)c1cn(-c2ccc(Cl)cn2)cn1
27 | 191 to 192 °C | CS(=O)(=O)c1ccc(-n2cncc2-c2ccc(Cl)nc2)cc1
28 | 201 to 203 °C | COc1ccc2c(c1)C(=O)c1ccc(C(=O)O)cc1CC2
29 | 118 to 120 °C | CC(C)(C)OC(=O)NCc1cccc(C(O)c2cc(Cl)ccc2NCc2ccc(OCc3ccccc3)c(OCc3ccccc3)c2)c1 (stereo unspecified)
30 | 147 °C | Cc1nn(C)cc1C(=O)Nc1cccc2c1CCC2(C)C
31 | 255 to 256 °C | CCOCc1nc2c(N)nc3cc(O)ccc3c2n1CC(C)(C)NS(C)(=O)=O
32 | 248 to 249 °C | NC(=O)c1sc(-n2cnc3cnc(Cl)cc32)cc1OCc1ccccc1C(F)(F)F
33 | 118 °C | CCOC(=O)c1cnc2c(O)cccc2c1
34 | 182 to 183 °C | Cc1ccccc1CC(=NC#N)NC(NC(=O)Cc1ccccc1)C(C)(C)C (stereo unspecified)
35 | 170 °C | COc1ccc2ccc(NC(=O)C3CC3)nc2n1
36 | 68 to 70 °C | CNC(=O)NC(=O)C(CC1CCCC1OC1CCCCO1)c1ccc(Cl)c(Cl)c1 (stereo unspecified)
37 | 115 to 117 °C | COc1cc2ccccc2cc1N(C)C(=O)N1CCN(c2cc(F)cc(F)c2)CC1
38 | 217 to 219 °C | O=C(Nc1cc2ncc(CN3CCCC3)cc2cc1F)c1ccc(-c2ccc(Cl)cc2)cc1F
39 | 300 °C | Cc1nc2ccccc2n1Cc1ccc(C(=O)O)cc1
40 | 165 °C | CSc1nc2ccnn2c(NCc2ccccc2)c1C#N
41 | 149 °C | Cc1ccc(S(=O)(=O)N2CCCC2c2ccccc2Cl)cc1 (racemic)

Continued, compound first:

Row | SMILES | melting point
42 | CCCCCCCCOc1cc(-c2cccc(C(F)(F)F)c2)c(OCC(=O)O)c(-c2cccc(C(F)(F)F)c2)c1 | 75 to 77 °C
43 | O=c1c(CCl)c[nH]c2c([N+](=O)[O-])cccc12 | 228 to 235 °C
44 | CC(C)=CC(C)(S)[C@@H](NC=O)C(=O)O (stereo partly specified) | 183 to 184 °C
45 | COc1cc2cnc(O)nc2cc1OC | 260 to 263 °C
46 | Oc1cc(CN/C=C2\CN=Cc3ccc(Br)cc32)ccc1OC(F)F | 256 to 258 °C
47 | O=Cc1cc2ccccc2[nH]1 | 134 to 137 °C
48 | Cc1cc(C)c(CC(=O)O)cc1C | 123 to 125 °C
49 | O=C(O)CCCc1ccc(CNC(=O)C2Cc3ccccc3N2S(=O)(=O)c2ccc(-c3cccc(C(F)(F)F)c3)cc2)cc1 (stereo unspecified) | 75 °C
50 | COc1c(O)ccc(C(=O)c2ccccc2)c1[N+](=O)[O-] | 169 to 171 °C
51 | Cc1cc(O)c(S(=O)C23CC4CC(CC(C4)C2)C3)c(=O)o1 (stereo unspecified) | 174 °C
52 | CS(=O)(=O)c1ccc(-c2cnn(CC(F)(F)F)c(=O)c2N2CCCCC2)cc1 | 160 to 161 °C
53 | O=C(c1ccc(C#Cc2ccccc2)cc1)c1ccc(Oc2ccccc2)cc1 | 166 °C
54 | CSC(=CC(=O)c1cncc(F)c1)SC | 150 to 152 °C
55 | Cc1ccc(-c2cc(C(F)(F)F)nn2-c2ccc(C#N)cc2)cc1 | 125 to 126 °C
56 | CC(CS(=O)(=O)c1ccc(-c2ccc(C(F)(F)F)cc2)cc1)N(O)C=O (stereo unspecified) | 175 °C
57 | CS(=O)(=O)c1ccc(-n2nc(C(F)(F)F)cc2-c2ccc(-c3ccco3)c(Cl)c2)cc1 | 143 to 145 °C
58 | CN1CCN(c2n[nH]c(-c3ccc(I)cc3)c2-c2ccncc2)CC1 | 265 to 266 °C
59 | CCCC[C@H](NC(=O)[C@H](CC(C)C)NC(=O)COc1ccc(OC)cc1)C(=O)CSCc1ccco1 | 86 to 88 °C
60 | Cc1[nH]nc(Oc2ncc(C(F)(F)F)cc2Cl)c1C | 102 to 103 °C
61 | O=C(O)c1snc(-c2ccccc2)c1O | 161 to 163 °C
62 | COC(=O)c1ccc2nn(-c3cc(C(C)(C)CC(C)(C)C)cc(C(C)(C)c4ccccc4)c3O)nc2c1 | 141 to 143 °C
63 | CC(N)Cc1ncc(O)c(C(=O)c2ccccc2)c1C(=O)c1ccccc1 (stereo unspecified) | 110 to 112 °C
64 | O=C(c1ccccc1)c1cccc2c(Cl)c[nH]c12 | 145 to 149 °C
65 | CCCCCCCCCCCCS(=O)(=O)CCOc1ccc(CCC(=O)C(F)(F)F)cc1 | 55 to 56 °C
66 | Cc1nc(Cc2ccc([N+](=O)[O-])cc2)sc1C | 93 to 94 °C
67 | CCOC(=O)C(=O)c1ccc(OCCCCCCc2cccc(OCc3ccccc3)c2OCc2ccccc2)cc1 | 39 to 42 °C
68 | COc1ccc(NC(=O)CCc2ccc(-c3c(C)sc4nc(=NS(=O)(=O)c5ccc(C)cc5)sn34)cc2)cc1OC | 203 to 204 °C
69 | Cn1nc(-n2ncc(C(N)=S)c2Br)c(Cl)c1OC(F)F | 175 °C
70 | COC(=O)c1ccc(C=CC=O)cc1 | 99 to 101 °C
71 | On1c(-c2ccccc2)c[nH]c1=S | 191 °C
